PubChem BioAssay AID246 (DTP/NCI, 2004)
Several values for one entry are separate records, joined by “and”; a condition that tells them apart may be missing. Equal values may be shown once. Toxic doses and inconclusive results are not listed.

Test system: BDF1 mice, P1081 chloroleukemia ip, survival T/C
Experiment: NCI In Vivo Anticancer Drug Screen. Data for tumor model P1081 Chloroleukemia (intraperitoneal) in B6D2F1 (BDF1) mice
Settings: endpoint: mean survival time, higher = longer survival
Protocol: The antitumor activity of compounds was measured in mice bearing transplantable tumors. Survival or tumor size were measured and the results are expressed as the measurement made in the treated group (T) divided by the measurement made in the vehicle treated control group (C). The tumor model used in this assay is P1081 Chloroleukemia (intraperitoneal) in B6D2F1 (BDF1) mice

[1] = dose: 2.5 mg/kg/injection, schedule: Q01DX010 (ip), vehicle: saline
[2] = dose: 5.0 mg/kg/injection, schedule: Q01DX010 (ip), vehicle: saline
[3] = dose: 10.0 mg/kg/injection, schedule: Q01DX010 (ip), vehicle: saline
[4] = dose: 12.5 mg/kg/injection, schedule: Q01DX Z (ip), vehicle: carboxymethylcellulose (CMC)
[5] = dose: 125.0 mg/kg/injection, schedule: Q01DX Z (sc), vehicle: steriod suspending solution
[6] = dose: 0.5 mg/kg/injection, schedule: Q01DX010 (ip), vehicle: saline
[7] = dose: 1.0 mg/kg/injection, schedule: Q01DX010 (ip), vehicle: saline
[8] = dose: 20.0 mg/kg/injection, schedule: Q01DX010 (ip), vehicle: saline

C[C@H](N)C(=O)N[C@@H]1[C@H]2C(=C(O)C[C@@H](O)[C@@H]2O)C(=O)O[C@@H]1C
T/C (dose: 93.8 mg/kg/injection, schedule: Q01DX Z (ip), vehicle: saline): 124 % of control | T/C (dose: 187.5 mg/kg/injection, schedule: Q01DX Z (ip), vehicle: saline): 150 % of control | T/C (dose: 250.0 mg/kg/injection, schedule: Q01DX Z (ip), vehicle: saline): 161 % of control | T/C (dose: 375.0 mg/kg/injection, schedule: Q01DX Z (ip), vehicle: saline): 175 % of control | T/C (dose: 500.0 mg/kg/injection, schedule: Q01DX Z (ip), vehicle: saline): 153 % of control | T/C (dose: 1000.0 mg/kg/injection, schedule: Q01DX Z (ip), vehicle: saline): 119 % of control

COc1cc2c(c(OC)c1OC)-c1ccc(OC)c(=O)cc1[C@@H](NC(C)=O)CC2
T/C (dose: 0.08 mg/kg/injection, schedule: Q01DX Z (ip), vehicle: saline): 112 % of control | T/C (dose: 0.16 mg/kg/injection, schedule: Q01DX Z (ip), vehicle: saline): 114 % of control | T/C (dose: 0.6 mg/kg/injection, schedule: Q01DX Z (ip), vehicle: saline): 151 % of control | T/C (dose: 0.63 mg/kg/injection, schedule: Q01DX Z (ip), vehicle: saline): 177 % of control

O=C(Nc1ccc(C2=NCCCN2)cc1)c1ccc(C(=O)Nc2ccc(C3=NCCCN3)cc2)cc1
T/C (dose: 0.5 mg/kg/injection, schedule: Q01DX Z (ip), vehicle: water): 109 % of control and 101 % of control | T/C (dose: 1.0 mg/kg/injection, schedule: Q01DX Z (ip), vehicle: water): 110 % of control and 118 % of control | T/C (dose: 4.0 mg/kg/injection, schedule: Q01DX Z (ip), vehicle: water): 162 % of control

NC(=O)N(CCCl)N=O
T/C (dose: 1.0 mg/kg/injection, schedule: Q01DX Z (ip), vehicle: carboxymethylcellulose (CMC)): 97 % of control | T/C (dose: 4.0 mg/kg/injection, schedule: Q01DX Z (ip), vehicle: carboxymethylcellulose (CMC)): 95 % of control | T/C (dose: 8.0 mg/kg/injection, schedule: Q01DX Z (ip), vehicle: carboxymethylcellulose (CMC)): 106 % of control | T/C (dose: 16.0 mg/kg/injection, schedule: Q01DX Z (ip), vehicle: carboxymethylcellulose (CMC)): 108 % of control

NC(Cc1ccc(N(CCCl)CCCl)cc1)C(=O)O (stereo unspecified)
T/C (dose: 1.25 mg/kg/injection, schedule: Q01DX Z (ip), vehicle: carboxymethylcellulose (CMC)): 115 % of control | T/C [1]: 150 % of control and 333 % of control | T/C [2]: 327 % of control | T/C (dose: 5.0 mg/kg/injection, schedule: Q01DX Z (ip), vehicle: carboxymethylcellulose (CMC)): 189 % of control | T/C [3]: 90 % of control | T/C (dose: 10.0 mg/kg/injection, schedule: Q01DX Z (ip), vehicle: carboxymethylcellulose (CMC)): 90 % of control

C[n+]1c2ccccc2nc2c(N)cc(N)cc21
T/C (dose: 1.6 mg/kg/injection, schedule: Q01DX Z (ip), vehicle: carboxymethylcellulose (CMC)): 100 % of control | T/C [4]: 110 % of control | T/C (dose: 25.0 mg/kg/injection, schedule: Q01DX Z (ip), vehicle: carboxymethylcellulose (CMC)): 101 % of control

CC/C(=C(/CC)c1ccc(O)cc1)c1ccc(O)cc1
T/C (dose: 12.5 mg/kg/injection, schedule: Q01DX010 (ip), vehicle: saline): 100 % of control | T/C (dose: 16.0 mg/kg/injection, schedule: Q01DX Z (sc), vehicle: steriod suspending solution): 95 % of control | T/C (dose: 25.0 mg/kg/injection, schedule: Q01DX010 (ip), vehicle: saline): 100 % of control and 105 % of control | T/C (dose: 50.0 mg/kg/injection, schedule: Q01DX010 (ip), vehicle: saline): 100 % of control and 105 % of control | T/C [5]: 88 % of control

CS(=O)(=O)OCCN(CCOS(C)(=O)=O)c1ccc(N=O)cc1
T/C [6]: 122 % of control | T/C [7]: 104 % of control | T/C (dose: 62.5 micrograms/kg/injection, schedule: Q01DX010 (ip), vehicle: saline): 155 % of control | T/C (dose: 125.0 micrograms/kg/injection, schedule: Q01DX010 (ip), vehicle: saline): 194 % of control | T/C (dose: 250.0 micrograms/kg/injection, schedule: Q01DX010 (ip), vehicle: saline): 277 % of control | T/C (dose: 500.0 micrograms/kg/injection, schedule: Q01DX010 (ip), vehicle: saline): 238 % of control

Nc1nc(F)nc2c1ncn2C1OC(CO)C(O)C1O (stereo unspecified)
T/C (dose: 0.25 mg/kg/injection, schedule: Q01DX010 (ip), vehicle: saline): 100 % of control | T/C [6]: 94 % of control | T/C [7]: 110 % of control and 100 % of control | T/C (dose: 2.0 mg/kg/injection, schedule: Q01DX010 (ip), vehicle: saline): 111 % of control and 105 % of control | T/C (dose: 4.0 mg/kg/injection, schedule: Q01DX010 (ip), vehicle: saline): 95 % of control

CCCCCCCCCCCCNCCCCCCCCCCCC
T/C (dose: 0.24 mg/kg/injection, schedule: Q01DX Z (ip), vehicle: saline): 91 % of control | T/C (dose: 0.48 mg/kg/injection, schedule: Q01DX Z (ip), vehicle: carboxymethylcellulose (CMC)): 112 % of control | T/C (dose: 0.48 mg/kg/injection, schedule: Q01DX Z (ip), vehicle: saline): 90 % of control | T/C (dose: 1.9 mg/kg/injection, schedule: Q01DX Z (ip), vehicle: carboxymethylcellulose (CMC)): 101 % of control | T/C (dose: 1.9 mg/kg/injection, schedule: Q01DX Z (ip), vehicle: saline): 94 % of control | T/C (dose: 3.8 mg/kg/injection, schedule: Q01DX Z (ip), vehicle: carboxymethylcellulose (CMC)): 103 % of control

Nc1nc(N)c2nc(CNc3ccc(C(=O)NC(CCC(=O)O)C(=O)O)cc3)cnc2n1 (stereo unspecified)
T/C (dose: 0.05 mg/kg/injection, schedule: Q01DX010 (ip), vehicle: other): 120 % of control | T/C (dose: 0.2 mg/kg/injection, schedule: Q01DX010 (ip), vehicle: other): 160 % of control and 170 % of control | T/C (dose: 0.4 mg/kg/injection, schedule: Q01DX010 (ip), vehicle: other): 90 % of control | T/C (dose: 8.0 micrograms/kg/injection, schedule: Q01DX Z (ip), vehicle: alkali diluted with saline): 117 % of control | T/C (dose: 16.0 micrograms/kg/injection, schedule: Q01DX Z (ip), vehicle: alkali diluted with saline): 107 % of control | T/C (dose: 31.0 micrograms/kg/injection, schedule: Q01DX Z (ip), vehicle: alkali diluted with saline): 99 % of control

O=C1CCC(N2C(=O)c3ccccc3C2=O)C(=O)N1 (stereo unspecified)
T/C (dose: 18.75 mg/kg/injection, schedule: Q01DX Z (ip), vehicle: carboxymethylcellulose (CMC)): 89 % of control | T/C (dose: 37.5 mg/kg/injection, schedule: Q01DX Z (ip), vehicle: carboxymethylcellulose (CMC)): 98 % of control | T/C (dose: 75.0 mg/kg/injection, schedule: Q01DX Z (ip), vehicle: carboxymethylcellulose (CMC)): 94 % of control | T/C (dose: 150.0 mg/kg/injection, schedule: Q01DX Z (ip), vehicle: carboxymethylcellulose (CMC)): 94 % of control

CC[n+]1c(-c2ccccc2)c2cc(N)ccc2c2ccc(N)cc21
T/C [1]: 165 % of control and 222 % of control | T/C [2]: 190 % of control and 333 % of control | T/C [8]: 100 % of control

C[N+](C)(C)c1ncnc2nc[nH]c12
T/C (dose: 3.1 mg/kg/injection, schedule: Q01DX Z (ip), vehicle: carboxymethylcellulose (CMC)): 94 % of control | T/C (dose: 6.25 mg/kg/injection, schedule: Q01DX Z (ip), vehicle: carboxymethylcellulose (CMC)): 97 % of control | T/C [4]: 100 % of control | T/C (dose: 100.0 mg/kg/injection, schedule: Q01DX Z (ip), vehicle: carboxymethylcellulose (CMC)): 195 % of control

Cc1cc(N(CCCl)CCCl)ccc1N=Nc1ccccc1C(=O)O
T/C [2]: 105 % of control | T/C (dose: 7.5 mg/kg/injection, schedule: Q01DX Z (ip), vehicle: carboxymethylcellulose (CMC)): 101 % of control | T/C [3]: 110 % of control and 95 % of control | T/C (dose: 15.0 mg/kg/injection, schedule: Q01DX Z (ip), vehicle: carboxymethylcellulose (CMC)): 104 % of control | T/C [8]: 110 % of control and 90 % of control | T/C (dose: 30.0 mg/kg/injection, schedule: Q01DX Z (ip), vehicle: carboxymethylcellulose (CMC)): 104 % of control | T/C (dose: 40.0 mg/kg/injection, schedule: Q01DX010 (ip), vehicle: saline): 110 % of control

C[C@]12CCC(=O)C[C@H]1CC[C@@H]1[C@@H]2CC[C@@]2(C)[C@H]1CC[C@]2(C)O
T/C (dose: 62.5 mg/kg/injection, schedule: Q01DX Z (sc), vehicle: steriod suspending solution): 114 % of control | T/C [5]: 100 % of control | T/C (dose: 250.0 mg/kg/injection, schedule: Q01DX Z (sc), vehicle: steriod suspending solution): 110 % of control | T/C (dose: 500.0 mg/kg/injection, schedule: Q01DX Z (sc), vehicle: steriod suspending solution): 112 % of control
